# Test results reported in patent US20080194575A1, “Treatment for non-alcoholic-steatohepatitis” (priority 2006, published 2008).
# Legend:
# Assay type in all cases: in vivo, C56BL/6 mice
# CPT-1 = CPT-1 mRNA expression in liver by real time RT-PCR; conditions: HSD 4 weeks, compound A 30 mg/kg daily subcutaneous, vs vehicle (FIG. 4B)
# Procedure: (§1) Animals, feeding and treatments Two groups of 8 week old male C56BL/6 mice were set under a high sucrose containing diet together with 1% Orotic acid (HSD) for 4 weeks (TD 02366, Tekland Mills) (Feldstein et al. J Hepatol, 39:978-983(2003)). All animals were purchased from Jackson Laboratories and were treated and handled following the National Academy of Sciences criteria (NIH publication 86-23 revised 1985). One group of animals received a daily subcutaneous injection of compound A at a concentration of 30 mg/kg (compound A) and the second group received vehicle with the same frequency (Vehicle). Additionally, a third group of mice was fed under a normal chow diet (control).
# (§2) RNA isolation and quantitative Real Time PCR RNA from frozen liver tissue was extracted with PeqGOLD-RNAPure kit (Peqlab). First strand synthesis was performed with Oligo dT primers and reverse transcription with M-MLV Reverse Transcriptase (Invitrogen Corp.) Quantitative Real Time PCR was performed with the AbbyPrism 7300 Real-Time PCR system from Applied Biosystems by using SYBR Green Reagent (Applied biosystems). Real time reactions were performed twice in triplicates. All values were normalized to the level of GAPDH. Primer sequences are detailed in Table 1.
# adiponectin = assay: Serum and liver adiponectin expression by ELISA; conditions: after 4 weeks of HSD, compound A 30 mg/kg daily subcutaneous
# Procedure: as §1
# (§3) Serum analysis Blood was taken from mice after fasting and glucose levels were measured with Ascensia Elite sensor (Bayer). Serum Insulin (Linco Research) and Adiponectin (R&D systems) levels were quantified by ELISA.
# [1] = High sucrose diet (HSD) induced obesity in mice: body weight gain and abdominal fat; conditions: HSD 4 weeks, compound A 30 mg/kg daily subcutaneous
# Procedure: as §1
# [2] = tested on: fatty acid translocase/CD36; assay: Fatty acid translocase/CD36 gene expression in liver by real time RT-PCR; conditions: HSD 4 weeks, compound A 30 mg/kg daily subcutaneous (FIG. 4E)
# Procedure: as §1, §2
# TNF = TNF expression in liver by Real Time RT-PCR; conditions: HSD 4 weeks, compound A 30 mg/kg daily subcutaneous, HSD/vehicle vs HSD/compound A (FIG. 3B)
# Procedure: as §1, §2
# [3] = Serum analysis after fasting in HSD fed mice: blood glucose, serum insulin (insulin resistance); conditions: HSD 4 weeks, compound A 30 mg/kg daily subcutaneous
# Procedure: as §1, §3
# [4] = tested on: Cytochrome P450 2E1 (CYP2E1); assay: CYP2E1 mRNA expression in liver by real time RT-PCR; conditions: HSD 4 weeks, compound A 30 mg/kg daily subcutaneous (FIG. 5A)
# Procedure: as §1, §2
# Acyl-CoA oxidase (ACOX) = Acyl-CoA oxidase (ACOX) mRNA expression in liver by real time RT-PCR; conditions: HSD 4 weeks, compound A 30 mg/kg daily subcutaneous, vs vehicle (FIG. 4C)
# Procedure: as §1, §2
# IL-6 = IL-6 expression in liver by Real Time RT-PCR; conditions: HSD 4 weeks, compound A 30 mg/kg daily subcutaneous, HSD/vehicle vs HSD/compound A (FIG. 3A)
# Procedure: as §1, §2
# [5] = tested on: HSD induced hepatic steatosis; assay: Histological evaluation of HSD induced hepatic steatosis (H&E semiquantitative score, Oil-Red-O staining); conditions: HSD 4 weeks
# Procedure: as §1
# (§4) Histological evaluation Livers from mice were harvested and after fixation with formaldehyde embedded in paraffin for further histological evaluation. Hematoxylin & Eosin staining was performed in liver sections and steatosis was assessed following a semiquantitative scoring system. Oil red 0 staining was performed to evidence the presence of intracellular lipds. Liver fibrosis was determined by Sirius Red which stains collagen fibres. Scoring of fibrosis was performed following the Brunt system. Additionally, immunohistochemistry (IHC) was performed on cryosections for the polyclonal anti-P65 (A) antibody, dilution 1/50 and anti-TNFα antibody, dilution 1/20 (both from Santa Cruz Biotechnology Inc.). […]
# Caspase-3 = Caspase-3 activity in whole liver extracts (Ac-DEVD-AMC); conditions: HSD 4 weeks, compound A 30 mg/kg daily subcutaneous (FIG. 6A)
# Procedure: as §1
# (§5) Detection of apoptosis Apoptotic cell death was determined in liver tissue by using two difference strategies. Caspase-3 activity was analysed in whole liver extracts. Proteins were extracted with the lysis buffer containing 1M Hepes, 10% CHAPS, 0.5 EDTA, 1 m DTT and 0.1 M pefa-block and further incubated with the fluorescent substrate Ac-DEVD-AMC (Biomol). The enzymatic activity was then measured at λ. excitation 390 nm and λ emission 510 nm and the result was corrected with the protein concentration. Additionally, we performed a TUNEL assay on frozen liver sections using the “In situ cell death detection Kit, POD” (Roche Diagnostics Corp.) following manufacturer's instructions.
# hepatocyte apoptosis = assay: TUNEL assay on frozen liver sections (hepatocyte apoptosis); conditions: HSD 4 weeks, compound A 30 mg/kg daily subcutaneous
# Procedure: as §1, §5
# NF-κB = assay: HSD induced NF-κB activation in liver (I-κBα western blot, p65 immunohistochemistry); conditions: HSD 4 weeks, compound A 30 mg/kg daily subcutaneous
# Procedure: as §1, §4
# Catalase = Catalase mRNA expression in liver by real time RT-PCR; conditions: HSD 4 weeks, compound A 30 mg/kg daily subcutaneous, vs vehicle and chow controls
# Procedure: as §1, §2
# PPARγ = PPARγ expression in liver on the mRNA and protein level; conditions: HSD 4 weeks
# Procedure: as §1
# (§6) Western blot analysis Whole liver protein extracts were obtained by using ice- cold buffer (20 mM Tris pH 7.5, 150 mM NaCl, 1 mM EGTA, 1 mM EDTA, 1% Triton X-100, 2.5 mM sodium pyrophosphate and cocktail of protease inhibitors). […]
# (§7) RNA isolation and quantitative Real Time PCR RNA from frozen liver tissue was extracted with PeqGOLD-RNAPure kit (Peqlab). First strand synthesis was performed with Oligo dT primers and reverse transcription with M-MLV Reverse Transcriptase (Invitrogen Corp.) Quantitative Real Time PCR was performed with the AbbyPrism 7300 Real-Time PCR system from Applied Biosystems by using SYBR Green Reagent (Applied biosystems). […]
# MnSOD = MnSOD mRNA expression in liver by real time RT-PCR; conditions: HSD 4 weeks, compound A 30 mg/kg daily subcutaneous, vs vehicle and chow controls (FIG. 5B)
# Procedure: as §1, §2
# PPARα = PPARα expression in liver (real time RT-PCR, western blot); conditions: HSD 4 weeks
# Procedure: as §1, §6, §7
# [6] = tested on: HSD induced liver fibrosis; assay: Liver fibrosis by Sirius red staining, Brunt score; conditions: HSD 4 weeks
# Procedure: as §1, §4
# [7] = compound A 30 mg/kg daily subcutaneous, vs HSD/vehicle
compound,measurement,setting,value
"CC(=O)N1CCN(C(=O)c2ccc(Nc3nccc(-c4ccc(Cl)cc4)n3)cc2)CC1 [compound A, 1-(4-{4-[4-(4-Chloro-phenyl)-pyrimidin-2-ylamino]-benzoyl}-piperazin-1-yl)-ethanone]",CPT-1 mRNA expression,CPT-1,up-regulated in livers from mice that received the compound A compared to vehicle treated animals
same,adiponectin expression in serum,adiponectin; vs chow controls (FIG. 3C),no significant change in adiponectin expression
same,adiponectin expression in liver,adiponectin; vs chow controls (FIG. 3D),no significant change in adiponectin expression
same,fat accumulation in the abdominal cavity,"[1]; macroscopical, vs vehicle and chow control",less amount of fat that was not significantly different compared to control chow mice
same,body weight gain,[1]; vs HSD/vehicle (FIG. 1A),significant weight gain was observed in vehicle treated mice after 4 weeks of HSD feeding compared to compound A treated mice
same,CD36 gene expression,[2],upregulated in HSD/compound A mice
same,TNF mRNA expression,TNF,upregulation of IL-6 and TNF mRNA expression was found compared to the HSD/compound A
same,serum insulin levels,"[3]; ELISA, vs HSD/vehicle (FIG. 1C)",roughly significantly less blood insulin that HSD/vehicle treated animals (p=0.06)
same,blood glucose levels,"[3]; fasted, HSD/vehicle vs HSD/compound A (FIG. 1B)",blood glucose levels were significantly higher in this group compared to animals treated with either HSD/compound A
same,CYP2E1 mRNA expression,[4],reduced HSD induced upregulation of CYP2E1 and its expression was not significantly different than the chow control group
same,ACOX mRNA expression,Acyl-CoA oxidase (ACOX),up-regulated in livers from mice that received the compound A compared to vehicle treated animals
same,IL-6 mRNA expression,IL-6,upregulation of IL-6 and TNF mRNA expression was found compared to the HSD/compound A
same,fat deposits in liver (Oil-Red-O staining),[5]; compound A 30 mg/kg daily subcutaneous,only minor microvesicular fat dropples could be observed in some of the HSD/compound A mice analysed
same,liver histology / steatosis (H&E staining),[5]; compound A 30 mg/kg daily subcutaneous (FIG. 2),liver histology similar to chow control animals with no clear evidence of fat accumulation
same,caspase 3 activity,Caspase-3,strongly reduced caspase 3 activity to a level as found in chow control mice
same,TUNEL-positive cells,hepatocyte apoptosis,"increase in TUNEL-positive cells, which could be blocked using compound A"
same,"I-κBα levels, western blot of whole liver extracts",NF-κB; lower levels in HSD/vehicle,I-κBα was clearly present in HSD/compound A
same,"NF-κB activation, p65 immunohistochemistry on liver sections",NF-κB; strong activation in HSD/vehicle,stainings were practically negative in HSD/compound A
same,Catalase mRNA expression,Catalase,significantly higher in compound A treated animals compared to vehicle treated mice and chow controls
same,PPARγ mRNA expression,PPARγ; compound A 30 mg/kg daily subcutaneous (FIG. 4D),upregulated in livers derived from these animals
same,"PPARγ protein expression, western blot",PPARγ; [7],more pronounced presence in compound A mice
same,MnSOD mRNA expression,MnSOD,significantly higher in compound A treated animals compared to vehicle treated mice and chow controls
same,"PPARα protein, western blot",PPARα; [7],higher presence of PPARα in livers from HSD/compound A mice than in HSD/vehicle animals
same,PPARα mRNA expression,"PPARα; real time RT-PCR, compound A 30 mg/kg daily subcutaneous (FIG. 4A)",significantly higher expression in liver from HSD fed mice treated with compound A
same,fibrosis score according to Brunt score,"[6]; compound A 30 mg/kg daily subcutaneous, HSD/vehicle score 1.6",virtually zero
same,liver collagen expression (Sirius red staining),"[6]; liver sections, compound A 30 mg/kg daily subcutaneous (FIG. 6B)",no significant degree of collagen expression could be detected
